From patent publication US12390470B2, “1-methylxanthine-based bioactive composition and method of use thereof” (Ingenious Ingredients, LP, priority 2021, dated 2025)
Several values for one entry are separate records, joined by “and”; a condition that tells them apart may be missing. Identical values can stand only once.

How the values were obtained:
[1] = tested on: participant; assay: Wakefulness by Visual Analog Scale; assay type: in vivo, human; conditions: Person two
Protocol: One participant ingested a non-energetic placebo (maltodextrin) followed by 200 mg dose of 1-methylxanthine (1-MX) one week later, orally with 8 fluid ounces of cold tap water. Wakefulness was measured by Visual Analog Scale (VAS) at baseline, 30, 60, 90, 120 and 180 minutes after ingestion.

[2] = tested on: participant; assay: Concentration by Visual Analog Scale; assay type: in vivo, human; design: Concentration (Visual Analog Scale): scale not given here
Protocol: One participant ingested 200 mg dose of 1-methylxanthine (1-MX) orally with 8 fluid ounces of cold tap water. Concentration was measured by Visual Analog Scale (VAS) at baseline, 30, 60, 90, 120 and 180 minutes after ingestion.

[3] = tested on: acetylcholine; assay: Acetylcholine level in young and old rats; assay type: in vivo
Protocol: Twenty-four young (6-8 Week) and twenty-four old (14-16 Months) Swiss Albino Wistar rats were housed in an animal room at a constant temperature (22±3° C.) and humidity (30%-70%) under a 12:12 h light-dark cycle with standard laboratory diet (Purina 5L79, Rat and Mouse 18% protein; PMI Nutrition International, Brentwood, MO, USA). Distilled water was provided ad libitum. All animal experiments were reviewed and approved by the Institutional Animal Ethical Committee (IAEC) of Radiant Research Services Pvt. Ltd (Bangalore, India). All research was conducted in accordance with the guidelines of the committee for the purpose of control and supervision of experiments on animals.
After one week of acclimation, the animals were randomly divided by body weight and age into six groups (n=8 per group in each test) for oral treatment once a day, at approximately same time each day (±1 hour), for 10 consecutive days: (1) vehicle control or (2) 1-methylxanthine or (3) 1-methylxanthine plus paraxanthine. The dose administered to the rat was calculated using US Food and Drug Administration for human equivalence doses (HED), assuming a human weight of 60 kg. […] Food intake was monitored daily while water intake was ad libitum. […] Body weight was recorded weekly. […]

## Cn1c(=O)[nH]c2nc[nH]c2c1=O [1-methylxanthine, 1-Methyl-3H-purine-2,6-dione]
[1]
  Wakefulness (VAS) MEAN: 69.0
[1]; 30 min
  Wakefulness (Visual Analog Scale): 65
[1]; 60 min
  Wakefulness (Visual Analog Scale): 65
[1]; 90 min
  Wakefulness (Visual Analog Scale): 65
[1]; 120 min
  Wakefulness (Visual Analog Scale): 75
[1]; 180 min
  Wakefulness (Visual Analog Scale): 75
[1]; time 0, 200 mg oral
  Wakefulness (Visual Analog Scale): 60
[2]; Average
  Concentration (VAS) MEAN (30-180): 61.2
[2]; Person one
  Concentration (VAS) MEAN (30-180): 54.4
[2]; Person one, 30 min
  Concentration (Visual Analog Scale): 60
[2]; Person one, 60 min
  Concentration (Visual Analog Scale): 61
[2]; Person one, 90 min
  Concentration (Visual Analog Scale): 50
[2]; Person one, 120 min
  Concentration (Visual Analog Scale): 50
[2]; Person one, 180 min
  Concentration (Visual Analog Scale): 51
[2]; Person one, time 0, 200 mg oral
  Concentration (Visual Analog Scale): 50
[2]; Person two
  Concentration (VAS) MEAN (30-180): 68.0
[2]; Person two, 30 min
  Concentration (Visual Analog Scale): 65
[2]; Person two, 60 min
  Concentration (Visual Analog Scale): 65
[2]; Person two, 90 min
  Concentration (Visual Analog Scale): 65
[2]; Person two, 120 min
  Concentration (Visual Analog Scale): 75
[2]; Person two, 180 min
  Concentration (Visual Analog Scale): 70
[2]; Person two, time 0, 200 mg oral
  Concentration (Visual Analog Scale): 65
[3]; old rats, listed as 1-MX
  acetylcholine level: 56.33±3.42 U/ml and 56.33±3.58 U/ml
[3]; young rats
  acetylcholine level: 63.35±4.12 U/ml
